Reference: the supplement of paper PMC10307832

What was measured:
Assay in all cases: relative viability (nuclei count vs DMSO), 5 days (fraction); higher = more cells survive
Vemurafenib + Crizotinib = compound: CCCS(=O)(=O)Nc1ccc(F)c(C(=O)c2c[nH]c3ncc(-c4ccc(Cl)cc4)cc23)c1F [Vemurafenib] + C[C@@H](Oc1cc(-c2cnn(C3CCNCC3)c2)cnc1N)c1c(Cl)ccc(F)c1Cl [Crizotinib] (partner 1 µM)
In short: (§1)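 Relative viability is defined as nuclei in treated wells over nuclei in vehicle wells. Duplicate plates were run and medians reported. Lung cancer cell lines in 1536-well plates were dosed by pin tool one day after seeding, with one drug or with a fixed anchor-drug dose plus five library-drug doses (not always all listed) in √10 steps, and nuclei were counted after 5 days.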

Alpelisib + Navitoclax = compound: Cc1nc(NC(=O)N2CCC[C@H]2C(N)=O)sc1-c1ccnc(C(C)(C)C(F)(F)F)c1 [Alpelisib] + CC1(C)CCC(c2ccc(Cl)cc2)=C(CN2CCN(c3ccc(C(=O)NS(=O)(=O)c4ccc(N[C@H](CCN5CCOCC5)CSc5ccccc5)c(S(=O)(=O)C(F)(F)F)c4)cc3)CC2)C1 [Navitoclax] (partner 0.5 µM)
In short: as §1

Alpelisib + Luminespib = compound: Cc1nc(NC(=O)N2CCC[C@H]2C(N)=O)sc1-c1ccnc(C(C)(C)C(F)(F)F)c1 [Alpelisib] + CCNC(=O)c1noc(-c2cc(C(C)C)c(O)cc2O)c1-c1ccc(CN2CCOCC2)cc1 [Luminespib] (partner 0.01 µM)
In short: as §1

Alpelisib + Dasatinib = compound: Cc1nc(NC(=O)N2CCC[C@H]2C(N)=O)sc1-c1ccnc(C(C)(C)C(F)(F)F)c1 [Alpelisib] + Cc1nc(Nc2ncc(C(=O)Nc3c(C)cccc3Cl)s2)cc(N2CCN(CCO)CC2)n1 [Dasatinib] (partner 0.075 µM)
In short: as §1

| Cell Line | relative viability (Vemurafenib + Crizotinib; first compound 0.03162 µM) | relative viability (Vemurafenib + Crizotinib; first compound 0.1 µM) | relative viability (Vemurafenib + Crizotinib; first compound 0.3162 µM) | relative viability (Vemurafenib + Crizotinib; first compound 1 µM) | relative viability (Alpelisib + Navitoclax; first compound 0.04 µM) | relative viability (Alpelisib + Navitoclax; first compound 0.1265 µM) | relative viability (Alpelisib + Navitoclax; first compound 0.4 µM) | relative viability (Alpelisib + Navitoclax; first compound 1.265 µM) | relative viability (Alpelisib + Navitoclax; first compound 4 µM) | relative viability (Alpelisib + Luminespib; first compound 0.04 µM) | relative viability (Alpelisib + Luminespib; first compound 0.1265 µM) | relative viability (Alpelisib + Luminespib; first compound 0.4 µM) | relative viability (Alpelisib + Luminespib; first compound 1.265 µM) | relative viability (Alpelisib + Luminespib; first compound 4 µM) | relative viability (Alpelisib + Dasatinib; first compound 0.04 µM) | relative viability (Alpelisib + Dasatinib; first compound 0.1265 µM) | relative viability (Alpelisib + Dasatinib; first compound 0.4 µM) | relative viability (Alpelisib + Dasatinib; first compound 1.265 µM) | relative viability (Alpelisib + Dasatinib; first compound 4 µM) |
| --- | --- | --- | --- | --- | --- | --- | --- | --- | --- | --- | --- | --- | --- | --- | --- | --- | --- | --- | --- |
| 201T | 0.997 | 0.993 | 1.09 | 1.02 | 1.16 | 1.16 | 1.2 | 1.15 | 1.14 | 1.08 | 1.02 | 1.02 | 0.961 | 0.956 | 0.561 | 0.487 | 0.541 | 0.434 | 0.359 |
| A549 | 0.704 | 0.717 | 0.743 | 0.717 | 1.23 | 1.18 | 1.06 | 0.851 | 0.715 |  |  |  |  |  |  |  |  |  |  |
| A-427 | 0.819 | 0.983 | 0.919 | 0.815 | 0.837 | 0.884 | 0.997 | 0.874 | 0.884 | 0.909 | 0.881 | 1.09 | 0.83 | 0.92 | 0.618 | 0.579 | 0.704 | 0.559 | 0.638 |
| ABC-1 | 1.01 | 1.21 | 1.2 | 0.997 |  |  |  |  |  | 0.432 | 0.932 | 0.554 | 0.228 | 0.391 | 0.637 | 0.495 | 0.823 | 0.484 | 0.386 |
| BEN | 0.812 | 0.9 | 0.603 | 0.817 | 0.0833 | 0.0642 | 0.161 | 0.0705 | 0.0615 | 0.341 | 0.101 | 0.474 | 0.332 | 0.159 | 0.318 | 0.23 | 0.38 | 0.333 | 0.29 |
| CAL-12T | 0.759 | 0.644 | 0.592 | 0.689 | 1.35 | 1.29 | 1.22 | 1.16 | 1.47 | 0.394 | 0.61 | 0.287 | 0.177 | 0.332 | 0.34 | 0.275 | 0.483 | 0.27 | 0.232 |
| COR-L23 | 0.6 | 0.524 | 0.597 | 0.59 | 0.923 | 1.02 | 1.07 | 0.789 | 0.753 | 0.678 | 0.748 | 0.696 | 0.62 | 0.477 | 0.436 | 0.392 | 0.535 | 0.278 | 0.292 |
| COR-L 105 | 0.623 |  | 0.661 | 1.13 | 0.607 | 0.633 | 0.728 | 0.615 | 0.554 | 0.768 | 0.565 | 0.956 | 0.59 | 0.86 | 0.301 | 0.444 | 0.346 | 0.273 | 0.26 |
| Calu-6 | 0.595 | 0.808 | 0.783 | 0.668 | 0.834 | 0.905 | 0.882 | 0.633 | 0.621 |  |  |  |  |  |  |  |  |  |  |
| ChaGo-K-1 | 1.07 | 1.14 |  | 1.13 | 1.01 |  | 1.14 | 0.731 | 0.583 | 0.61 | 0.488 | 0.706 | 0.585 | 0.507 | 0.546 | 0.592 | 0.547 | 0.487 | 0.452 |
| EBC-1 | 0.188 | 0.19 | 0.197 | 0.182 | 0.417 | 0.312 | 0.339 | 0.233 | 0.281 |  |  |  |  |  |  |  |  |  |  |
| EKVX | 0.842 |  | 1 | 0.968 | 0.969 | 0.903 | 1.12 | 0.84 | 0.75 | 0.877 | 0.712 | 0.961 | 0.844 | 0.552 | 0.556 | 0.572 | 0.544 | 0.407 | 0.266 |
| EMC-BAC-2 | 0.703 | 0.729 | 0.678 | 0.681 | 1.11 | 1.08 | 1.17 | 0.956 | 0.879 | 1.24 | 1.03 | 1.16 | 0.932 | 0.707 | 0.31 | 0.291 | 0.28 | 0.228 | 0.208 |
| EPLC-272H | 0.822 | 0.809 | 0.89 | 0.841 | 1.16 | 1.05 | 1.19 | 0.722 | 0.79 | 0.74 | 0.253 | 0.155 | 0.19 | 0.164 | 0.313 | 0.281 | 0.219 | 0.201 | 0.202 |
| H3255 | 0.883 |  | 0.865 | 0.808 | 0.463 | 0.47 | 0.524 | 0.384 | 0.407 | 0.896 | 0.765 | 1.17 | 0.733 | 0.625 | 0.403 | 0.345 | 0.363 | 0.315 | 0.256 |
| HARA | 1.04 |  | 1.09 | 1.07 | 1.13 | 1.17 | 1.16 | 1.2 | 0.575 | 0.406 | 0.955 | 0.896 | 0.515 | 0.341 | 0.291 | 0.281 | 0.215 | 0.174 | 0.155 |
| HCC-15 | 0.75 | 0.803 | 0.699 | 0.81 | 0.627 | 0.7 | 0.74 | 0.598 | 0.454 | 0.252 | 0.292 | 0.336 | 0.423 | 0.145 | 0.559 | 0.587 | 0.56 | 0.379 | 0.31 |
| HCC-44 | 0.749 | 0.867 | 0.809 | 0.813 | 0.949 | 0.983 | 1.04 | 0.802 | 0.735 | 1.11 | 1.08 | 1.2 | 0.614 | 0.84 |  |  |  |  |  |
| HCC-78 | 0.315 | 0.277 | 0.376 | 0.333 | 0.745 | 0.609 | 0.738 | 0.373 | 0.518 |  |  |  |  |  | 0.367 | 0.326 | 0.357 | 0.366 | 0.314 |
